From patent US9707239B2, “Compounds that modulate oxidative stress” (vTv Therapeutics LLC, priority 2011, dated 2017) come the findings set out here.

SMILES strings stand for the structures. “Also recorded” adds a separate entry of the source.

The subject of series [1] is TXNRD1. Description: mRNA expression (Quantigene Plex) in NHLF cells: TXNRD1. It is filed as cell-based, human. Conditions: mRNA normalized to GAPDH, above DMSO treated cells. The method, then:
(§1) Secondary growth of NHLF cells were used for all assays. Cell were thawed and then placed into culture in T225 flasks. The cells were grown to 80% confluency and harvested by washing once with HEPES buffered saline solution and then trypsinizing. Equal numbers (7×10^3 cells per well) of NHLF cells were plated in 96 well tissue culture plates (Corning). Cells were incubated overnight in FGM-2 medium prior to exposure to compound. Cells were treated with either DMSO or a compound as described below for 6 h. Preparation of cell lysates was carried out according to instructions using the Quantigene Reagent system 2.0 protocol (Panomics). mRNA induction was detected from cell lysate using the Quantigene Plex 2.0 Assay Kit (Panomics) on the Luminex platform (BIO-RAD). Expression of GAPDH mRNA was used as the internal control for the Quantigen Plex 2.0 Assay. The data in Tables 5 and 6 represents the fold change of target mRNA expression, normalized to control values, above DMSO treated cells.

In series [2] the test system is NQO1. Briefly: mRNA expression (Quantigene Plex) in NHLF cells: NQO1. It is filed as cell-based, human. Conditions: mRNA normalized to GAPDH, above DMSO treated cells. As for the experimental part:
as §1

In series [3] the test system is NHLF cells. Briefly: ROS measurements (H2DCF-DA imaging). It is filed as cell-based, human. To be noted: 1 hr, cell-by-cell imaging, FIG. 3A/3B. The method, then: Secondary growth of NHLF cells were used for all assays. Cells were cultured as above. Cells were plated into 384-well BD-Optilux Plates at 2,000 cells/well and cultured overnight at 37° C. and 5% CO2. The following day, cell were washed and 2,7-dihydrodichlorofluorescin diacetate (H2DCF-DA), 10 μM ferric ammonium citrate (FAC), and Hoechst stain were added to cells for 30 min. The cells were washed once with PBS to remove any H2DCF-DA not taken up by cells. Test compounds were prepared in FBM-2 media at the desired concentrations. The plates and stain-treated cells were incubated with test compounds for 1 hr at 37° C. and 5% CO2. Following the incubation period, ROS generation was determined by imaging the cells on a GE INcell 1000 imager (Hoechst Ex. 360 Em. 535; H2DCF-DA 488 Ex. 480 Em. 535). ROS levels were determined and quantified using GE IN Cell Analyzer Software.
In addition to gene profiling, the requirement for ROS generation or chemical reactivity was tested. ROS generation was measured using an automated imaging technique. Compound 13 as well as two other compounds that were found in the screening set were tested in this experiment. Untreated NHLF cells, NHLF cells treated with the HMOX1 inducer CoPP (a negative control), and NHLF cells treated with curcumin or celestrol (positive controls) were included as controls. […] Further experiments were also conducted on chemical derivatives of Compound 13. In those experiments, all compounds tested were found not to induce an elevation of ROS levels in the cell (FIG. 3B). Thus, Compound 13 and related compounds represent a class of agents that elevate HMOX1 production without elevating ROS production.

The subject of series [4] is ICAM. Description: mRNA expression (Quantigene Plex) in NHLF cells: ICAM. To be noted: mRNA normalized to GAPDH, above DMSO treated cells. The format is cell-based, human. As for the experimental part:
as §1

Series [5] has as its system HSPA6. Briefly: mRNA expression (Quantigene Plex) in NHLF cells: HSPA6. It is filed as cell-based, human. Conditions: mRNA normalized to GAPDH, above DMSO treated cells. As for the experimental part: as §1
Series [6] has as its system human Bach1. Briefly: MARE controlled luciferase reporter gene assay in HepG2 cells with or without Bach1 expression. To be noted: transient transfection, with or without Bach1 expressing plasmid, FIG. 7. It is filed as cell-based. As for the experimental part: The ability of Compound 13 to act in a manner similar to CoPP provides evidence for the hypothesis that Bach1 activity is being modulated by the compounds. […] To that end, expression vectors were prepared which contained the HMOX1 mARE promoter element recognized by both Bach1 and Nrf2. This element was placed in control of the reporter gene luciferase. Under conditions of transient transfection of HepG2 cells, the reporter has a low level of basal activity due to the relative ratio of Bach1 and Nrf2 found in the cell. Co-transfection with a Bach1 expressing plasmid leads to repression of luciferase activity. Therefore, one can test whether the compounds can increase the level of luciferase in the cells, thus overcoming Bach1 repression. […] Thus, the tested compound is able to overcome suppression by additional Bach1.
In general terms: A reporter such as luciferase makes a cellular process visible.

The test system of series [7] is NHLF cells. Description: Cytoprotection of cisplatin (CDDP)-treated NHLF cells (propidium iodide staining). The format is cell-based. To be noted: NHLF cells, compound 24 hours prior to cisplatin exposure, FIG. 8. The method, then: A key outcome of Bach1 derepression and Nrf2 activation are the induction of cytoprotective genes. A method to test such cytoprotection is to assess the ability of a compound to protect normal human cells such as lung fibroblasts from toxicity due to cisplatin exposure. A model of cellular cytoprotection was established whereby normal human lung fibroblasts were treated with Bach1 modulators and then subsequently exposed to cisplatin. NHLF cells are very sensitive to cisplatin exposure; following a dose of 200 uM cisplatin, >90% of NHLF cells are propidium iodide positive, a measure of cell death.

The subject of series [8] is ATF4. Briefly: mRNA expression (Quantigene Plex) in NHLF cells: ATF4. The format is cell-based, human. To be noted: Table 5, 6 h, mRNA normalized to GAPDH, above DMSO treated cells. The method, then: as §1
The test system of series [9] is Keap1. Briefly: HMOX1 induction after Keap1 silencing (shRNA). It is filed as cell-based, human. Conditions: NHLF cells, FIG. 6. As for the experimental part:
Normal human lung fibroblasts were plated in a 12-well tissue culture dish at 16,000 cells/well and allowed to attach overnight. Regular medium was then replaced with 200 μl of fresh growth medium containing 8 μg/ml hexadimethrine bromide (polybrene). Lentiviral transduction particles were then added in the following amounts: Control shRNA (1.1×10^7 TU/ml, Sigma, cat# SHC002V), 15 μl for an MOI of 10; KEAP-1 shRNA (6.3×10^6 TU/ml, Sigma, cat# SHCLNV-TRCN0000046092), 63 μl for an MOI of 20. After 4 hours in the cell culture incubator, another 200 μl of growth medium was added on top of the original volume. Cells were replenished the next day with fresh complete growth medium and were allowed to recover for 24 hours, after which selection medium was applied (complete medium with 1 μg/ml puromycin).
Another method of testing the role of the Nrf2 regulatory pathway on compound activity is to determine the effect of silencing Keap1 on HMOX1 gene expression. It is known that deleting Keap1 will result in the induction of Nrf2 dependent genes but not, to any significant degree, HMOX1. The proposed explanation for this observation is that HMOX1 requires the concomitant derepression of Bach1 activity and that this event is more dependent on active processes (e.g., heme binding, changes in redox potential of the cell, phosphorylation of Bach1, etc.). We therefore tested the ability of Compound 13 and tool compounds to induce HMOX1 in the presence of silencing of Keap1 in normal human lung fibroblasts.
Normal human lung fibroblasts were tested with DMSO, CoPP, Compound 13, and two derivatives including Compound 4 and Compound 8. An electrophile, Compound 1, was also included in the test set. […] On the other hand, induction of HMOX1 by the electrophile Compound 1 was inhibited.

The subject of series [10] is GADD45A. Description: mRNA expression (Quantigene Plex) in NHLF cells: GADD45A. The format is cell-based, human. Conditions: mRNA normalized to GAPDH, above DMSO treated cells. The method, then: as §1
For series [11], the system named is HMOX1. Description: mRNA expression (Quantigene Plex) in NHLF cells: HMOX1. It is filed as cell-based, human. Conditions: mRNA normalized to GAPDH, above DMSO treated cells. The method, then:
as §1

Series [12] can be described thus: Compound levels in rat blood after oral gavage (LC-MS). Conditions: rats. The format is in vivo. As for the experimental part:
(§2) Next, selected Bach1 modulators were tested for in vivo function. […] Rats were dosed with 5 mg/kg of compound by oral gavage. Compound levels in blood were determined by LC-MS (left panel). […] In a second experiment, Compound 8 activity was tested by determining the amount of HMOX1 mRNA induced in rat blood. Animals were dosed by oral gavage and blood drawn at the indicated times.

For series [13], the system named is rat HMOX1 mRNA. Description: HMOX1 mRNA induction in rat blood after oral gavage. It is filed as in vivo. Conditions: rats, oral gavage 5 or 25 mg/kg, over 5 hours, FIG. 11B. As for the experimental part: as §2

For the compound `C=Cc1c(C)c2cc3[nH]c(cc4nc(cc5nc(cc1[nH]2)C(C)=C5CCC(=O)[O-])C(CCC(=O)[O-])=C4C)c(C)c3C=C.[Co+2]` [CoPP, Cobalt protoporphyrin IX, reference compound], the “TXNRD1 (fold induction)” value is 2.7 fold induction in series [1] (Table 5, 6 h) and 2.39 fold induction in [1] (Table 6, 6 h). Further, the “NQO1 (fold induction)” value is reported as 3.5 fold induction in series [2] (Table 5, 6 h) and 4.22 fold induction in series [2] (Table 6, 6 h). In series [3], the “ROS production (in words)” value is “did not”. Besides, in series [4] (Table 5, 6 h), the “ICAM (fold induction)” value amounted to 1.1 fold induction. Besides, the “ICAM1 (fold induction)” value in series [4] (Table 6, 6 h) was 0.56 fold induction. Besides, the “HSPA6 (fold induction)” value was 0.9 fold induction in [5] (Table 5, 6 h) and 0.86 fold induction in series [5] (Table 6, 6 h). Moreover, in [6], the “luciferase activity of HMOX1 mARE reporter” value was “able to induce luciferase activity in the presence or absence of Bach1 protein expression; also recorded: can overcome this repression”. Further, the “protection against cisplatin toxicity” value in series [7] is given as “protect the cells from CDDP-mediated toxicity”. The “ATF4 (fold induction)” value in [8] came out at 0.85 fold induction. Also, in [9], the “HMOX1 induction in the presence of Keap1 silencing” value was “unaffected in their ability to induce HMOX1 in the presence of Keap1 silencing”. Further, the “GADD45A (fold induction)” value is reported as 1.02 fold induction in series [10] (Table 5, 6 h) and 1.18 fold induction in series [10] (Table 6, 6 h). In addition, the “HMOX1 (fold induction)” value is 48 fold induction in series [11] (Table 5, 6 h) and 49.64 fold induction in [11] (Table 6, 6 h).
As for `COCCNC(=O)c1ccc2c(c1)nc(Nc1nc3ccc(OC(F)(F)F)cc3s1)n2C` [Compound 8, 1-Methyl-2-(6-trifluoromethoxy-benzothiazol-2-ylamino)-1H-benzoimidazole-5-carboxylic acid (2-methoxy-ethyl)-amide], the “compound levels in blood” value in series [12] (5 mg/kg (legend: 5 or 25 mg/kg) oral gavage, LC-MS, FIG. 11A) was “micromolar levels; also recorded: present in blood sample following oral dosing”. In addition, the oral bioavailability result in series [12] (oral gavage, FIG. 11) is recorded as “orally bioavailable”. The “HMOX1 induction in the presence of Keap1 silencing” value in [9] is “unaffected in their ability to induce HMOX1 in the presence of Keap1 silencing; also recorded: behaves similarly to CoPP induction”. For the same compound, the “HMOX1 mRNA induced in rat blood” value in series [13] was “able to induce HMOX1 mRNA in rat blood in a time and dose-dependent manner; also recorded: dose-dependent induction of rat HMOX1 mRNA in blood samples”.
